Values joined by “and” are separate entries in the source; they are usually repeats but may differ in a detail not shown here. Identical values can stand only once.
Test system: P. falciparum 3D7 growth, pLDH absorbance
Assay: blood-stage malaria parasite growth potency – strain 3D7, dose response (AID 2305)

Compound	IC50
OC(CNCc1ccccc1OCc1ccccc1)c1cccc(I)c1 (stereo not drawn)	420 nM
O=C(c1ccc(Cl)c(Cl)c1)N1CCc2c([nH]c3ccccc23)C1CN1CCCC1 (stereo not drawn)	830 nM
COc1ccc(C2CC(=O)C3=C(C2)NC(C)=C(C(=O)OC(C)C)C3c2c(F)cccc2Cl)cc1OC (stereo not drawn)	820 nM
CCc1cc2c(=O)c(-c3nc(C)cs3)c([C@H](N)Cc3ccc(O)cc3)oc2cc1O	900 nM
CN(N=Cc1ccccc1)C(N)=NCCCC#Cc1cccc(CN2CCCC2)c1	1790 nM
Oc1ccc(Nc2nc(N3CCCC3)c3ccccc3n2)cc1	270 nM
Cc1cccc(Nc2c(-c3cc(Br)ccc3O)nc3ncccn23)c1	210 nM
O=C(NCc1cccc(F)c1)Nc1ccc(-c2ccc(-c3nc4ccc(C(F)(F)F)cc4[nH]3)cc2)cc1	770 nM
O=C(Nc1ccc(C(=O)N2CCN(CCN3CCN(c4cccc(C(F)(F)F)c4)CC3)CC2)cc1)c1cc(Cl)cc(Cl)c1	830 nM
CC(=O)N(C)/N=C/[C@H](CCc1ccccc1)NC(=O)[C@H](CC(C)C)NC(=O)c1cccc(OCCN2CCOCC2)c1	330 nM
Fc1ccc2nc(-c3cccc(-c4ccc(CNCCc5ccncc5)cc4)c3)[nH]c2c1	110 nM
CCOC(=O)CCCN1C(=O)CN=C(c2ccccc2)c2cc(Cl)ccc21	780 nM
CCCNC(=O)c1cncc(-c2ccc(CNC(CC)c3ccccc3)cc2)c1 (stereo not drawn)	880 nM
O=C(Nc1cccc(-c2ccc(-c3nc4ccc(F)cc4[nH]3)s2)c1)c1cccnc1	610 nM
CCCCC(O)c1cc(O)c2c(c1)OC(C)(C)CC2C1=CCN(Cc2ccc3ccccc3c2)CC1 (stereo not drawn)	970 nM
O=C(Nc1cccc(CN2CCCN(Cc3cccnc3)CC2)c1)c1ccc(Cl)c(Cl)c1	930 nM
O=C(NCc1cccc(F)c1)Nc1cccc(-c2cccc(-c3nc4ccccc4[nH]3)c2)c1	390 nM
O=C(Nc1cccc(-c2nn3ccccc3c2-c2ccnc(Nc3ccc(-c4cc[nH]n4)cc3)n2)c1)c1c(F)cccc1F	190 nM
CCN(CC)CCN(Cc1ccc(-c2ccc(C(F)(F)F)cc2)cc1)C(=O)Cn1c(CCc2cccc(F)c2F)nc(=O)c2ccccc21	670 nM
Cc1ccc(C(NC(=O)Cc2ccccc2)c2ccc3cccnc3c2O)cc1 (stereo not drawn)	620 nM
CC(C)C(=O)NC(Nc1ccc([N+](=O)[O-])cc1)C(Cl)(Cl)Cl (stereo not drawn)	840 nM
O=C(NCCNc1noc(-c2sccc2Br)n1)c1ccc(Cl)cc1	1170 nM
NC(=O)c1cccc(-n2ccc3cc(CNC4Cc5ccccc5C4)ccc32)c1	1130 nM
O=C(Nc1ccc(-c2ccc(-c3nc4ccccc4[nH]3)s2)cc1)Nc1ccsc1	280 nM
Cc1c(CCc2cccc(F)c2F)[nH]c2ccccc2c1=O	820 nM

Compound	IC50
Cc1ccc(Cc2cnc(NCCSCc3ccc(CN4CCOCC4)o3)[nH]c2=O)cn1	1070 nM
Cc1cc(NN=Cc2cccc(Cl)c2)c2cc(F)ccc2n1	760 nM
CS(=O)(=O)c1ccc(CNCc2cccc(-c3cccc(-c4nc5ccc(C(F)(F)F)cc5[nH]4)c3)c2)cc1	180 nM
O=C(Nc1ccc(-c2nc3ccccc3[nH]2)cc1)c1cccc([N+](=O)[O-])c1	220 nM
O=C(NC1CCN(Cc2ccc(O)cc2)CC1)c1ccc(Cl)c(Cl)c1	1180 nM
O=C(CCCCCNC(=O)c1ccc(O)c(-c2cccc(C(F)(F)F)c2)c1)NCCN1CCCCC1	890 nM
CC(C)N1CCN(C(CN2CCN(CCCOc3cccc(-c4ccccc4)c3)CC2)c2ccc(F)cc2)CC1 (stereo not drawn)	890 nM
COc1ccc2nc(SC(C)C(=O)c3c[nH]c4ccccc34)[nH]c2c1 (stereo not drawn)	1280 nM
O=C(Cc1ccccc1)NC(c1ccc(Cl)cc1)c1ccc2cccnc2c1O (stereo not drawn)	860 nM
N#Cc1cccc(Nc2ncc3c(-c4cccc(NC(=O)Cc5cccc(Cl)c5)c4)c[nH]c3n2)c1	420 nM
Cn1ccnc1-c1nc2ccccn2c1NCC(=O)Nc1ccccc1N1CCCCC1	980 nM
COc1cccc(C(=O)N2CCOC(CCN3CCC(c4ccccc4)CC3)(c3ccc(Cl)c(Cl)c3)C2)c1 (stereo not drawn)	510 nM
COc1cccc(-c2cc(C(F)(F)F)n3ncc(C(=O)Nc4cc(Cl)ccc4O)c3n2)c1	200 nM
O=C(N[C@@H](Cc1ccccc1)C(=O)NC1CCCc2ccccc21)c1ccc(O)c(-c2cccc(C(F)(F)F)c2)c1 (stereo partly drawn)	1000 nM
Fc1ccc(COc2ccc(Nc3ncnc4ccc(I)cc34)cc2Cl)cc1	1180 nM
COc1ccc2nccc([C@@H](O)CN3CCC(NCc4ccc5cccc(O)c5n4)CC3)c2n1	910 nM
c1ccc(-c2nc(Nc3nc4ccccc4[nH]3)[nH]c2-c2ccccc2)cc1	620 nM
COC(=O)C(=C(C)C)N1C(=O)[C@@H](NC(=O)OCc2ccccc2)[C@H]1SS[C@@H]1[C@H](NC(=O)OCc2ccccc2)C(=O)N1C(C(=O)OC)=C(C)C	430 nM
O=c1ccccn1CCCC1CCCCN1 (stereo not drawn)	810 nM
CNC(=O)c1ccc2[nH]cc(C3CCN(CC4CCC(NC(=O)/C=C/c5ccc(Cl)c(Cl)c5)CC4)CC3)c2c1 (stereo not drawn)	1010 nM
O=C(Nc1ccc(C2=NC3CCCCC3N2)cc1)Nc1ccc(C2=NC3CCCCC3N2)cc1 (stereo not drawn)	180 nM
Cc1cc2c(NC(=O)NC3CCN(CCc4cccc(Cl)c4)CC3)cccc2cn1	370 nM
CS(=O)(=O)CCNCc1nc(-c2ccc3c(Nc4ccc(F)c(O)c4)ccnc3c2)cs1	820 nM
Cc1ccc(NC(=O)c2ccc3nccnc3c2)cc1OC1CCN(Cc2ccc(F)cc2)CC1	1010 nM
O=C(/C=C/c1ccc(Cl)cc1)NCCCCCN1CCCN(C(=O)Nc2ccc(F)c(Cl)c2)CC1	780 nM

Compound	IC50
CN1CC[C@@H](Oc2cc(Nc3nc(-c4ccc(C#N)cc4)cs3)ccc2Cl)C1	820 nM
Cc1cccc2[nH]c(-c3cccc(-c4cccc(NC(=O)COc5ccccc5C(N)=O)c4)c3)nc12	160 nM
NC(N)=Nc1ccc(C(=O)O)c(O)c1	1030 nM
COc1ccc(-c2nc3c4cc(I)ccc4c4ccccc4c3[nH]2)cc1	1100 nM
C=CCc1cccc(CN2CCC(c3cc(=O)[nH]c(-c4ccccn4)n3)CC2)c1O	1100 nM
CN(C)C(CNC(=O)c1cc(-c2ccncc2)c(-c2ccc(NC(=O)Nc3cccc(F)c3)cc2)o1)c1ccccc1 (stereo not drawn)	770 nM
O=C(NCC1CCN(Cc2ccsc2)C1)c1cc(-c2cccc(C(F)(F)F)c2)cs1 (stereo not drawn)	700 nM
O=C(Nc1cccc(CN2CCCN(Cc3cccc(Cl)c3)CC2)c1)c1ccc(Cl)c(Cl)c1	990 nM
O=C(Cc1ccc(-n2cnnn2)cc1)N(Cc1cncn1Cc1cccc(C(F)(F)F)c1)CC1CC1	960 nM
c1ccc(CN2CCC(NCc3ccc(-c4cccc(CNC5CCCC5)c4)cc3)CC2)cc1	340 nM
Cc1cccc(C(=O)Nc2ccnc(N3CCC(N(C)Cc4cccc(C#N)c4)CC3)c2)c1	1100 nM
CCCC(C)N(Cc1ccc(C(C)(C)C)cc1)C(=O)c1cccc(OC)c1 (stereo not drawn)	340 nM
OC(CNCCc1ccccc1)Cn1c2ccc(Cl)cc2c2cc(Cl)ccc21 (stereo not drawn)	730 nM
CCNc1cc(C(=O)N[C@@H](Cc2ccccc2)[C@H](O)CNCc2cc(C#N)ccc2OC)cc(N2CCCC2=O)c1	1230 nM
CCCCCCCN1CC[C@@H](CCCc2ccnc3ccc(OCC4CCCNC4)cc23)[C@@H](CC)C1 (stereo partly drawn)	620 nM
O=C(NCc1ccc(F)cc1)c1cnc(N2CCN(c3ccncc3)CC2)c(Cl)c1	1390 nM
Oc1c(Br)cc2oc3c(c2c1CNCc1ccccc1)CCCC3	960 nM
COc1ccc2c(NN=Cc3cccnc3)cc(C)nc2c1	990 nM
CC(=O)N(C)c1ccc(C(=O)Nc2cccc(-c3cccc(-c4nc5ccc(C(F)(F)F)cc5[nH]4)c3)c2)cc1	310 nM
O=S(=O)(NC1CCN(c2ccnc3cc(Cl)ccc23)C1)c1cccs1 (stereo not drawn)	700 nM
COc1cc(-c2ccccc2)ccc1C(=O)Nc1ccc2c(c1)N(C)CCC2	330 nM
COc1cccc(C(O)CNc2ccnc(Nc3cccc(-c4csc(C)n4)c3)n2)c1 (stereo not drawn)	790 nM
COc1cc(NCC(CN)Cc2ccc3c(c2)OCO3)nc2ccccc12 (stereo not drawn)	820 nM
COc1ccc2nc3cc(Cl)ccc3c(Nc3ccc(Oc4ccc(Nc5c6ccc(Cl)cc6nc6ccc(OC)cc56)cc4)cc3)c2c1	860 nM
COc1cc(Nc2nccc(N3CCC(NC(=O)Nc4ccc5c(c4)OCO5)C3)n2)cc(OC)c1OC (stereo not drawn)	760 nM

Compound	IC50
COc1ccc(NC(=O)Nc2ccc(-c3ccccc3)cc2Cl)cc1N1CCN(C)CC1	870 nM
Cc1c(Cl)cccc1S(=O)(=O)Nc1cccc(CCN2CCC(N3CCCCC3)CC2)c1	830 nM
CC(C)c1ccc(NC(=O)Nc2ccc(Cn3ncc(N4CCCNCC4)c(Cl)c3=O)cc2)cc1	1050 nM
Cc1nc2ccc([N+](=O)[O-])cc2c(=O)n1OCc1ccccc1	210 nM
Cc1cc(Cl)ccc1OC(C)C(=O)N1CCc2ccccc21 (stereo not drawn)	670 nM
O=C(Nc1cccc(CN2CCN(C(=O)c3cccc(F)c3)CC2)c1)c1cccs1	370 nM
N=C(N)c1cc(Br)cc(NC(=O)Nc2cc(Br)cc(C(=N)N)c2)c1	820 nM
COc1ccc2cc(C=NNc3nc4ccccc4[nH]3)c(Cl)nc2c1	650 nM
O=C(Nc1ccc(CN2CCC(c3c[nH]c4ccc(O)cc34)CC2)cc1)c1ccc(-c2ccccc2)cc1	250 nM
Cc1nc2nc(N)nc(N)c2c(C)c1Cc1ccc(O)cc1	240 nM
O=C(/C=C/c1ccc(C(F)(F)F)cc1)NCCCCCN1CCCN(C(=O)Nc2cccc(Cl)c2)CC1	990 nM
COc1ccc(Cn2c(Nc3cccc(C(F)(F)F)c3)nc3cc(C(=O)NCCCN(C)C)ccc32)cc1Cl	910 nM
Oc1ccc(CN2Cc3ccccc3OC3(CCN(Cc4c[nH]c5cnccc45)CC3)C2)cc1	1170 nM
N#Cc1ccc2c(c1)CCN(CCC1CCC(NC(=O)c3cc4ccc(Br)cc4[nH]3)CC1)C2 (stereo not drawn)	760 nM
CC(C)(C)NCc1cc(Nc2ccnc3cc(Cl)ccc23)ccc1F	30 nM
Cc1[nH]c(C)c(-c2ccc(Oc3ccc(OC(F)(F)F)cc3)cc2)c(=O)c1Br	560 nM and 110 nM
CCOc1ccc2ccccc2c1C(=O)Nc1cc(C)nn1-c1nc(C)cc(=O)[nH]1	1010 nM
Cc1[nH]c(C)c(-c2ccc(-c3cccc(C(F)(F)F)c3)nc2)c(=O)c1Br	140 nM
COc1c(C2CCN(CCCCNC(=O)c3cc(-c4ccc(Cl)cc4)[nH]c3C)CC2)ccc2c1CCCC2	970 nM
O=C(Nc1ccc(Cl)cc1)c1cccc(S(=O)(=O)NC2CCN(CC3CCCCC3)C2)c1 (stereo not drawn)	910 nM
N#Cc1cccc(C(=O)Nc2cccc(-c3ccc(C(=O)Nc4cccnc4)cc3)c2)c1	690 nM
Cc1ccc(C)c(CN2CCC(CNC(=O)c3cc4ccc5cccnc5c4[nH]3)CC2)c1	990 nM
Cc1cccc(NC(=O)c2ccc(C(=O)NC3CCN(CC4CCCCC4)C3)cc2)c1 (stereo not drawn)	920 nM
